Reference: US20070191493A1, “Use of n-alkanols as activators of the cftr channel” (priority 2003, published 2007)
pEC50: −log10 of the molar value. Read-outs that look alike come from different tables or passages of the source.

Assays:
CFTR channel [1] = biological target: T1, CFTR channel (Homo sapiens, UniProt P13569); test: 125I radioactive iodide efflux in CHO-CFTR(+) cells; type: cell-based; parameters: expressed in transfected cells; host or cells: CHO (Chinese hamster ovary) cells, CHO-CFTR(+)
T1 sequence (P13569 whole entry): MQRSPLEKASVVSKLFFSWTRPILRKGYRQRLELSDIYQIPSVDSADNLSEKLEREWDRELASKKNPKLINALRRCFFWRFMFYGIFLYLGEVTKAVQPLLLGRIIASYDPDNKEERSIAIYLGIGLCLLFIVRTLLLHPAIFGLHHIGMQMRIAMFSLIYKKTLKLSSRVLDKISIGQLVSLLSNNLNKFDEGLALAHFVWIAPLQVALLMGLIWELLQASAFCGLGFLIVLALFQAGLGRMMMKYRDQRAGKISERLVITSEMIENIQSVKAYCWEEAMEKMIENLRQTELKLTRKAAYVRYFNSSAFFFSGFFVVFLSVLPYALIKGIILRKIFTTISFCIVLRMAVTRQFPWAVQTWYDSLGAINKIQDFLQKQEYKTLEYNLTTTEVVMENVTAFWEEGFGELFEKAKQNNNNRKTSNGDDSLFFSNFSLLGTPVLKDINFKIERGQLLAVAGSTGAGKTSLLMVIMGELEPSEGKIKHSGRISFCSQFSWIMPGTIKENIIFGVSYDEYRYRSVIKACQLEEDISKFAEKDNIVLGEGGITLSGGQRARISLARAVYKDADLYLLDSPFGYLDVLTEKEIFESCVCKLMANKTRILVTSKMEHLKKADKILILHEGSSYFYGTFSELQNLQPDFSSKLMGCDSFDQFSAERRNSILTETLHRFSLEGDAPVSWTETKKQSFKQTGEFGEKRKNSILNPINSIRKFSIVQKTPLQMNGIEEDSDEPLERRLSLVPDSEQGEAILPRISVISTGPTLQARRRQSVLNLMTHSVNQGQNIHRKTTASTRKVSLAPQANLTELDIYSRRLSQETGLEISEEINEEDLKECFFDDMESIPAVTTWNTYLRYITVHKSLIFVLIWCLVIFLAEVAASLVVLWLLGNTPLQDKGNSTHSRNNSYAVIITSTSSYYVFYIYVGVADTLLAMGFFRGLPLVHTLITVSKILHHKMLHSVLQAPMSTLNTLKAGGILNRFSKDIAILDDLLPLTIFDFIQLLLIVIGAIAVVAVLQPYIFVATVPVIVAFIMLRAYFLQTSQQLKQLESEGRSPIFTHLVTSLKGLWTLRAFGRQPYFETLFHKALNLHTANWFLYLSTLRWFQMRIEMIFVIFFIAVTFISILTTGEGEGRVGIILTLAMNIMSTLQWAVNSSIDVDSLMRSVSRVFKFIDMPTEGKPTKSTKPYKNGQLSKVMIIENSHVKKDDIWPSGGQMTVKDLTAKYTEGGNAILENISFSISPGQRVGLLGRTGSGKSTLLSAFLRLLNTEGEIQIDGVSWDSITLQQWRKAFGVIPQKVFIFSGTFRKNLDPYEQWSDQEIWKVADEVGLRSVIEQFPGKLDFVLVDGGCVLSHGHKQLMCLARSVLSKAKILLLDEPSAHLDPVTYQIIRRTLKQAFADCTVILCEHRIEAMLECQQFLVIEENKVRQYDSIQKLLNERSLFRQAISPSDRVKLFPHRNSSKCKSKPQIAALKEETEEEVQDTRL
Description: The cells are cultured in 24-well plates with a dilution to 1/10 after passage. […] The operation is repeated every 30 s for 2 to 6 min. […] All the samples are counted in a gamma counter (Kontron). The precipitated proteins are solubilized in 0.1N NaOH and quantified using a calorimetric test.
The tracer contained in the cell layer at the beginning of the efflux is calculated as the sum of the samples and of the extracts counted. The efflux curves are constructed by expressing the percentage of the content remaining in the cell layer (I %) with respect to time. The stimulated or nonstimulated efflux rate constants (k, min^−1) are determined by smoothing the efflux curves to a monoexponential function I %=100*exp(−kt) using a linear regression of the neperian logarithm of the data, k is used to calculate the iodide released into the medium with respect to time. The hypothesis is made that, in the presence of a stimulator, the efflux is the sum of two iodide effluxes occurring in parallel: a basal efflux and a stimulated efflux characterized, respectively, by the constants kb and ks. The total net efflux is then described by the equation It^%=100*(1−exp(−ktt)) where kt is the sum of kb and ks. Finally, ks calculated as kt−kb is used to establish a dose-response relationship for antagonists. The data is expressed as means ±SD, and the t-test is used to determine the significances. The concentration-response curves for agonists or for antagonists are smooth using the hyperbolic equation Y=Ymax*X/(EC5C+X), where Y is the response. Y begins at the basal level and progresses to the plateau (Ymax), X is the concentration and the half-effect values (EC are calculated using GraphPad Prism v3.0 (GraphPad software)).

CFTR channel [2] = biological target: T1, CFTR channel; test: whole-cell patch-clamp in CHO-BQ1 cells, reversibility after washing; type: cell-based; parameters: expressed in transfected cells; host or cells: CHO-BQ1 cells; conditions: octan-1-ol 1 mM, washing 15 min with physiological saline
Description: More specifically, culture dishes (cell support) are placed in an experimentation cell (volume 1 ml) on the platform of an inverted microscope (Nikon) equipped with phase-contrast lighting. The whole-cell configuration is used for recording the cell currents (Hamill et al., 1981). The experiments are carried out at ambient temperature (20-22° C.). The currents are amplified with an Axopatch 200B amplifier (Axon Instrument Ltd) having a 2-5 kHz low-pass filter (Bessel 6-pole filter), and recorded on the hard disk of a PC after digitization at 10-25 kHz. The pipettes are produced from glass tubes 1 mm in diameter (Clark Electromedical Instrument) in four steps with a horizontal drawing device (Bruwn Flaming 97, CA).
The pipettes, filled with an intracellular solution containing, in mM: 60 KCl; 80 NMDG ([…]); 10 HEPES; 5 EGTA; 1 CaCl2; 4 MgATP; 0.2 Na3GTP; pH 7.4, titrated with KOH), having a resistance of 5 MΩ. The potentials are expressed as the difference between the potential of the patch electrode and that of the bath. In the whole-cell configuration, they represent the membrane potential of the cell. […] The current-voltage relationships in the stationary state are determined using slow voltage ramps (20 mV/.s) under an imposed voltage condition. […]

CHO cells = test: ATP-induced calcium response (cellular uncoupling) in CHO cells; type: cell-based, Chinese hamster; conditions: α-GA 10 to 100 μM, octan-1-ol 1 mM
Description: The Ca^2+ measurements are carried out in the presence of fura-2 (impermeant fluorescent probe) which binds […]. The cells are incubated in serum-free DMEM/F12 culture medium in the presence of the permeant form of fura-2 (fura-2/AM, 2.5 μM) for 1 h at 37° C. The cells, placed on the platform of an epifluorescent microscope (Olympus) (20× objective), are perfused with the solutions to be tested (e.g. ATP, octanol). They are sequentially illuminated at 340 nm and 380 nm and the fluorescence emitted (F) is measured at 510 nm. It is detected via a 12-bit CCD camera (Sony) connected to a data processing computer unit (TILL Photonics). The intracellular Ca^2+ concentration [Ca^2+]i is calculated using the Grynckiewicz equation (Grynckiewicz et al., 1985): [Ca^2+]i=Kdi *(R−Rmin/Rmax−R), based on the ratiometric analysis R (340/380 nm) of the fluorescence (TILL Vision); Rmax and Rmin denote the ratio of fluorescence measured in the presence or in the absence of Ca^2+.

## CCCCCCCCO [octan-1-ol]
CFTR channel [1]; 1 mM, 125I efflux or patch-clamp
  order of activation of CFTR by n-alkanols: hexan-1-ol<heptan-1-ol<octan-1-ol<octan-2-ol<decan-1-ol
CFTR channel [1]; CHO-CFTR(+) cells
  concentration at which plateau of CFTR activation is reached: 1 mM
CFTR channel [1]; CHO-CFTR(+) cells, n-alkanols 1 mM, FSK 1 μM, A23187 2 μM, α-GA 10 and 100 μM
  activation of CFTR (125I efflux), in words: increase in activation of CFTR
CFTR channel [1]; CHO-CFTR(+) cells, read-out: half-activation dose
  pEC50: 3.30
CFTR channel [1]; EC50 of activation of CFTR (125I efflux rate constant), CHO-CFTR(+) cells, octan-1-ol 0.1 to 5 mM
  pEC50: ~3.30
CFTR channel [2]
  reversibility of the activating effect on CFTR: reversible
CHO cells
  cellular uncoupling shown by ATP-induced calcium response: clearly uncouples the cells
